For 28 molecules, IC50 and EC50 results are on record in ChEMBL document CHEMBL3856241, “Discovery of novel 5-hydroxy-4-pyridone-3-carboxy acids as potent inhibitors of influenza Cap-dependent endonuclease” (Bioorg Med Chem Lett, 2016).

SMILES strings stand for the structures. Some results are limits rather than exact numbers.

Assay [1] can be described thus: Inhibition of Influenza A virus A/WSN/33(H1N1) cap-dependent endonuclease using 3'-BHQ2 labeled 30-mer RNA as substrate after 60 mins by fluorescence assay. Details: species or system Influenza A virus (A/WSN/1933(H1N1)).
The nature of assay [2]: Antiviral activity against Influenza A virus A/WSN/33(H1N1) infected in MDCK cells assessed as inhibition of virus-induced cytopathic effect after 3 days by WST-8 assay. It counts as functional, cell-based, Influenza A virus (A/WSN/1933(H1N1)). To be noted: 72 h.

Consider `O=C(O)c1cn(CC2(c3ccc4c(c3)OCO4)CCCC2)cc(O)c1=O`, for which 16.3 nM corresponded to half-maximal inhibition in assay [1] (IC50). In other words, the double-digit nanomolar range. The same measure, in the same setting: next, `O=C(O)c1cn(CCc2cccc(Cl)c2)cc(O)c1=O`: 430 nM. Same read-out and setting: next, `O=C(O)c1cn(CCCCc2ccccc2)cc(O)c1=O`: 2810 nM; `O=C(O)c1cn(CC2(c3ccc4cccnc4c3)CCCC2)cc(O)c1=O`: 16.4 nM. Still for that read-out and setting: next, `O=C(O)c1cn(CCc2ccc(O)cc2)cc(O)c1=O`: 2490 nM. Turning to `O=C(O)c1cn(CC2(n3ccc4cccnc43)CCCC2)cc(O)c1=O`, in assay [2], the EC50 (in general, the concentration at which the effect is half-maximal) came to 201 nM. Also, the midpoint of inhibition in assay [1], the IC50, lay at 5.12 nM. With `O=C(O)c1cn(CC2(c3ccccc3)CCC2)cc(O)c1=O`, in assay [1], the IC50 (usually the concentration that inhibits the measured activity by half) was 105 nM. Still for that read-out and setting: the same measure for `Cn1cc(C2(Cn3cc(O)c(=O)c(C(=O)O)c3)CCCC2)c2ncccc21`: 46.3 nM; for `O=c1ccn(Cc2ccc(F)cc2)cc1O`: greater than 500000 nM; for `O=C(O)c1cn(CC2(c3ccc(Cl)cc3)CCCC2)cc(O)c1=O`: 15.6 nM. On the same count and under the same terms, next, `O=C(O)c1cn(CC2(c3ccccc3)CCCC2)cc(O)c1=O`: 60.7 nM; `O=C(O)c1cn(CCc2ccc(Cl)cc2)cc(O)c1=O`: 824 nM. In assay [1], `O=C(O)c1cn(CC2(c3cccc(Oc4ccccc4)c3)CCCC2)cc(O)c1=O` showed an IC50 of 43 nM. Same read-out and setting: next, `O=C(O)c1cn(Cc2ccccc2)cc(O)c1=O`: 2100 nM; `O=C(O)c1cn(CCCc2ccccc2)cc(O)c1=O`: 1420 nM. Still for that read-out and setting: next, `Cn1cc(C2(Cn3cc(O)c(=O)c(C(=O)O)c3)CCCC2)c2ccccc21`: 16.1 nM. Same read-out and setting: the same measure for `O=C(O)c1cn(CC2(c3cccc(Cl)c3)CCCC2)cc(O)c1=O`: 9.2 nM.

Regarding `O=C(O)c1cn(CC2(c3ccccc3Cl)CCCC2)cc(O)c1=O`, 36.1 nM corresponded to half-maximal inhibition in assay [1] (IC50). `O=C(O)c1cn(CC2(c3ccc4ccccc4c3)CCCC2)cc(O)c1=O` yielded an IC50 in assay [1] of 28.4 nM. Same read-out and setting: the same measure for `O=C(O)c1cn(CC2(c3ccccc3)CCCCC2)cc(O)c1=O`: 61.8 nM. Still for that read-out and setting: next, `O=C(O)c1cn(Cc2ccc(F)cc2)ccc1=O`: greater than 500000 nM; `O=C(O)c1cn(CCc2ccccc2Cl)cc(O)c1=O`: 242 nM; `O=C(O)c1cn(CCc2ccccc2)cc(O)c1=O`: 714 nM. Take `O=C(O)c1cn(CC2(c3ccnc(-n4cccn4)c3)CCCC2)cc(O)c1=O`: the IC50 in assay [1] was determined as 17.9 nM. The same measure, in the same setting: next, `O=C(O)c1cn(CCc2ccc(-c3ccc(F)cc3)cc2)cc(O)c1=O`: 3730 nM; `O=C(O)c1cn(Cc2ccc(F)cc2)cc(O)c1=O`: 3230 nM; `O=C(O)c1cn(CC2(c3ccccc3)CC2)cc(O)c1=O`: 402 nM. Same read-out and setting: next, `O=C(O)c1cn(-c2ccc(F)cc2)cc(O)c1=O`: 6510 nM.
